pIC50: −log10 of the molar value.

As a reminder, the pIC50 is −log10 of the IC50, conventionally taken in molar units.

T1 sequence (Q06187 whole entry): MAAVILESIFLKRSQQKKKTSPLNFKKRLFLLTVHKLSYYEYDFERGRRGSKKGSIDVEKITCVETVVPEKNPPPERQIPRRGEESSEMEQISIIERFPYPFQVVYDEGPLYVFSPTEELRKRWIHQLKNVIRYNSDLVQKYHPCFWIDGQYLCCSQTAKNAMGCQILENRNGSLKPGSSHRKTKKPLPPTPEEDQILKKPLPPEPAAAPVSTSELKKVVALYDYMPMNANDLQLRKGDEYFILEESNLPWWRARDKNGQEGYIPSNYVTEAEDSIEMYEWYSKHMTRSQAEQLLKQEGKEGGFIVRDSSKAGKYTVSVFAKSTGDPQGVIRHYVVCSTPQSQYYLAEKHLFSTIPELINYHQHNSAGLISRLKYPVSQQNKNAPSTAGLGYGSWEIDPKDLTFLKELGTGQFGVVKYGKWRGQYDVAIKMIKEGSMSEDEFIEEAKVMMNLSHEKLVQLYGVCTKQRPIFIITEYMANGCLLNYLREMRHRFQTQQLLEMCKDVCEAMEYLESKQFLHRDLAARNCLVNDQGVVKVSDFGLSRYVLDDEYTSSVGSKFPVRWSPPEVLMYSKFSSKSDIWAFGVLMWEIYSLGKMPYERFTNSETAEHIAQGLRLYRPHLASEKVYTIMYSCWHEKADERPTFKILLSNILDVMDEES

This test concerns the target T1, BTK (Homo sapiens, UniProt Q06187).
T1 construct: purchased Upstate 14-552
Description: In vitro BTK kinase assay: BTK-POLYGAT-LS assay. The class given is biochemical. Particulars: 10 uM ATP, read-out: IC50 (10 uMATP).
On to `CC(C)(C)c1ccc(C(=O)NC2CCCc3cc(-c4ncnc5[nH]ncc45)ccc32)nc1` (stereo not drawn) [Example I-131, N-(6-(1H-pyrazolo[3,4-d]pyrimidin-4-yl)-1,2,3,4-tetrahydronaphthalen-1-yl)-5-(tert-butyl)picolinamide], for which the pIC50 is 6.00 to 7.00.

Turning to `O=C(NC(CO)c1ccc(-c2ncnc3[nH]ncc23)cc1)c1cc2c(s1)CCCC2` (stereo not drawn) [Example I-132, N-(1-(4-(1H-pyrazolo[3,4-d]pyrimidin-4-yl)phenyl)-2-hydroxyethyl)-4,5,6,7-tetrahydrobenzo[b]thiophene-2-carboxamide], the pIC50 was 7.00 to 8.00.

Regarding `Cc1cc(-c2ncnc3nc(N4CCN(C)CC4)sc23)ccc1CNC(=O)c1cnc(C(C)(C)C)s1` [Example I-133, 2-(tert-butyl)-N-(2-methyl-4-(2-(4-methylpiperazin-1-yl)thiazolo[4,5-d]pyrimidin-7-yl)benzyl)thiazole-5-carboxamide], the pIC50 was 7.00 to 8.00.

For the compound `Cc1cc(-c2ncnc3cc[nH]c23)ccc1C(C)NC(=O)c1cnc(C(C)(C)C)s1` (stereo not drawn) [Example I-134, 2-(tert-butyl)-N-(1-(2-methyl-4-(5H-pyrrolo[3,2-d]pyrimidin-4-yl)phenyl)ethyl)thiazole-5-carboxamide], the pIC50 is 7.00 to 8.00.

Turning to `CC(NC(=O)c1cc2c(s1)CCCC2)c1ccc(-c2ncnc3[nH]ncc23)cc1C(F)(F)F` (stereo not drawn) [Example I-135, N-(1-(4-(1H-pyrazolo[3,4-d]pyrimidin-4-yl)-2-(trifluoromethyl)phenyl)ethyl)-4,5,6,7-tetrahydrobenzo[b]thiophene-2-carboxamide], the pIC50 is 7.00 to 8.00.

Turning to `CC1(C)CCc2nc(C(=O)NC3CCCc4cc(-c5ncnc6[nH]ncc56)ccc43)sc2C1` (stereo not drawn) [Example I-136, N-(6-(1H-pyrazolo[3,4-d]pyrimidin-4-yl)-1,2,3,4-tetrahydronaphthalen-1-yl)-6,6-dimethyl-4,5,6,7-tetrahydrobenzo[d]thiazole-2-carboxamide], the pIC50 is 7.00 to 8.00.

Turning to `O=C(NC1CCCc2cc(-c3ncnc4[nH]ncc34)ccc21)c1nc2c(s1)CCCC2` (stereo not drawn) [Example I-137, N-(6-(1H-pyrazolo[3,4-d]pyrimidin-4-yl)-1,2,3,4-tetrahydronaphthalen-1-yl)-4,5,6,7-tetrahydrobenzo[d]thiazole-2-carboxamide], the pIC50 was 7.00 to 8.00.

As for `O=c1c2c(F)cc(C3CC3)cc2ccn1C1CCCc2cc(-c3ncnc4[nH]ncc34)ccc21` (stereo not drawn) [Example I-138, 2-(6-(1H-pyrazolo[3,4-d]pyrimidin-4-yl)-1,2,3,4-tetrahydronaphthalen-1-yl)-6-cyclopropyl-8-fluoroisoquinolin-1(2H)-one], the pIC50 is 7.00 to 8.00.

Consider `Cc1cc(-c2ccnc3[nH]ncc23)cnc1CNC(=O)c1cc2c(s1)CCCC2` [Example I-139, N-((3-methyl-5-(1H-pyrazolo[3,4-b]pyridin-4-yl)pyridin-2-yl)methyl)-4,5,6,7-tetrahydrobenzo[b]thiophene-2-carboxamide], for which the pIC50 is 7.00 to 8.00.

With `Cc1cc(-c2ncnc3cc[nH]c23)cnc1CNC(=O)c1cc2c(s1)CCCC2` [Example I-140, N-((3-methyl-5-(5H-pyrrolo[3,2-d]pyrimidin-4-yl)pyridin-2-yl)methyl)-4,5,6,7-tetrahydrobenzo[b]thiophene-2-carboxamide], the pIC50 is 6.00 to 7.00.

`Cc1cc(-c2ncnc3sc4c(c23)CCC4)ccc1CNC(=O)c1cnc(C(C)(C)C)s1` [Example I-141]: the pIC50 is 6.00 to 7.00.

For `CC(C)(C)c1ccc(C(=O)NC2CCCc3cc(-c4ncnc5[nH]ncc45)ccc32)cn1` (stereo not drawn) [Example I-142, N-(6-(1H-pyrazolo[3,4-d]pyrimidin-4-yl)-1,2,3,4-tetrahydronaphthalen-1-yl)-6-(tert-butyl)nicotinamide], the pIC50 is 6.00 to 7.00.

With `CCC(NC(=O)c1cc2c(s1)CCCC2)c1ccc(-c2ncnc3[nH]ncc23)cc1` (stereo not drawn) [Example I-143, N-(1-(4-(1H-pyrazolo[3,4-d]pyrimidin-4-yl)phenyl)propyl)-4,5,6,7-tetrahydrobenzo[b]thiophene-2-carboxamide], the pIC50 is 6.00 to 7.00.

Take `CC(C)(C)c1ncc(C(=O)N[C@@H]2CCCc3cc(-c4ccnc5[nH]ncc45)cnc32)s1` [Example I-144, (R)—N-(3-(1H-pyrazolo[3,4-b]pyridin-4-yl)-5,6,7,8-tetrahydroquinolin-8-yl)-2-(tert-butyl)thiazole-5-carboxamide]: the pIC50 was 6.00 to 7.00.

As to `CC(NC(=O)c1nc2c(s1)CCCC2)c1ccc(-c2ncnc3[nH]ncc23)cc1C(F)(F)F` (stereo not drawn) [Example I-145, N-(1-(4-(1H-pyrazolo[3,4-d]pyrimidin-4-yl)-2-(trifluoromethyl)phenyl)ethyl)-4,5,6,7-tetrahydrobenzo[d]thiazole-2-carboxamide], the negative logarithm of the IC50 (pIC50) is 6.00 to 7.00.

Regarding `O=C(NC1CCCc2cc(-c3ncnc4[nH]ncc34)ccc21)c1ccc(C(F)(F)F)cn1` (stereo not drawn) [Example I-147, N-(6-(1H-pyrazolo[3,4-d]pyrimidin-4-yl)-1,2,3,4-tetrahydronaphthalen-1-yl)-5-(trifluoromethyl)picolinamide], the pIC50 is 5.00 to 6.00.

On to `CC(C)C(NC(=O)c1cc2c(s1)CCCC2)c1ccc(-c2ncnc3[nH]ncc23)cc1` (stereo not drawn) [Example I-149, N-(1-(4-(1H-pyrazolo[3,4-d]pyrimidin-4-yl)phenyl)-2-methylpropyl)-4,5,6,7-tetrahydrobenzo[b]thiophene-2-carboxamide], for which the pIC50 is 5.00 to 6.00.

Turning to `CC(C)(C)c1ccnc(C(=O)NC2CCCc3cc(-c4ncnc5[nH]ncc45)ccc32)c1` (stereo not drawn) [Example I-150, N-(6-(1H-pyrazolo[3,4-d]pyrimidin-4-yl)-1,2,3,4-tetrahydronaphthalen-1-yl)-4-(tert-butyl)picolinamide], the pIC50 was 5.00 to 6.00.

As to `NC(=O)C(NC(=O)c1cc2c(s1)CCCC2)c1ccc(-c2ncnc3[nH]ncc23)cc1` (stereo not drawn) [Example I-151, N-(1-(4-(1H-pyrazolo[3,4-d]pyrimidin-4-yl)phenyl)-2-amino-2-oxoethyl)-4,5,6,7-tetrahydrobenzo[b]thiophene-2-carboxamide], the pIC50 is 5.00 to 6.00.

In the case of `CC(C)(C)c1ncc(C(=O)N[C@H]2CCCc3cc(-c4ccnc5[nH]ncc45)cnc32)s1` [Example I-152, (S)—N-(3-(1H-pyrazolo[3,4-b]pyridin-4-yl)-5,6,7,8-tetrahydroquinolin-8-yl)-2-(tert-butyl)thiazole-5-carboxamide], the pIC50 is 5.00 to 6.00.

On to `Cc1cc(-c2ncnc3[nH]ccc23)cnc1CNC(=O)c1cc2c(s1)CCCC2` [Example I-153, N-((3-methyl-5-(7H-pyrrolo[2,3-d]pyrimidin-4-yl)pyridin-2-yl)methyl)-4,5,6,7-tetrahydrobenzo[b]thiophene-2-carboxamide], for which the pIC50 was 7.00 to 8.00.

On to `CC(C)(C)c1ccc(C(=O)NC2CCc3cc(-c4ncnc5[nH]ccc45)ccc32)cc1` (stereo not drawn) [Example I-154, N-(5-(7H-pyrrolo[2,3-d]pyrimidin-4-yl)-2,3-dihydro-1H-inden-1-yl)-4-(tert-butyl)benzamide], for which the negative logarithm of the IC50 (pIC50) is below 5.00.

`Cn1cc(-c2cc3c(-c4ccc5c(c4)CCCC5NC(=O)c4cnn(C(C)(C)C)c4)ncnc3[nH]2)cn1` (stereo not drawn) [Example I-156, 1-(tert-butyl)-N-(6-(6-(1-methyl-1H-pyrazol-4-yl)-7H-pyrrolo[2,3-d]pyrimidin-4-yl)-1,2,3,4-tetrahydronaphthalen-1-yl)-1H-pyrazole-4-carboxamide]: the pIC50 was above 8.00.

With `Cn1cc(-c2cc3c(-c4ccc5c(c4)CCCC5NC(=O)N4CCC(C(C)(C)C)C4)ncnc3[nH]2)cn1` (stereo not drawn) [Example I-157, 3-(tert-butyl)-N-(6-(6-(1-methyl-1H-pyrazol-4-yl)-7H-pyrrolo[2,3-d]pyrimidin-4-yl)-1,2,3,4-tetrahydronaphthalen-1-yl)pyrrolidine-1-carboxamide], the pIC50 was above 8.00.

Consider `CC(C)OC1CN(C(=O)NC2CCCc3cc(-c4ncnc5[nH]c(-c6cnn(C)c6)cc45)ccc32)C1` (stereo not drawn) [Example I-158, 3-isopropoxy-N-(6-(6-(1-methyl-1H-pyrazol-4-yl)-7H-pyrrolo[2,3-d]pyrimidin-4-yl)-1,2,3,4-tetrahydronaphthalen-1-yl)azetidine-1-carboxamide], for which the pIC50 was above 8.00.

Take `Cn1cc(-c2cc3c(-c4ccc5c(c4)CCCC5NC(=O)N4CC(OC(C)(C)C)C4)ncnc3[nH]2)cn1` (stereo not drawn) [Example I-159, 3-(tert-butoxy)-N-(6-(6-(1-methyl-1H-pyrazol-4-yl)-7H-pyrrolo[2,3-d]pyrimidin-4-yl)-1,2,3,4-tetrahydronaphthalen-1-yl)azetidine-1-carboxamide]: the negative logarithm of the IC50 (pIC50) was above 8.00.

Consider `Cn1cc(-c2cc3c(-c4ccc5c(c4)CCCCC5NC(=O)c4cnn(C(C)(C)C)c4)ncnc3[nH]2)cn1` (stereo not drawn) [Example I-160, 1-(tert-butyl)-N-(2-(6-(1-methyl-1H-pyrazol-4-yl)-7H-pyrrolo[2,3-d]pyrimidin-4-yl)-6,7,8,9-tetrahydro-5H-benzo[7]annulen-5-yl)-1H-pyrazole-4-carboxamide], for which the pIC50 is above 8.00.

Take `Cn1cc(-c2cc3c(-c4ccc5c(c4)CCCCC5NC(=O)c4cnc(C(C)(C)C)s4)ncnc3[nH]2)cn1` (stereo not drawn) [Example I-161, 2-(tert-butyl)-N-(2-(6-(1-methyl-1H-pyrazol-4-yl)-7H-pyrrolo[2,3-d]pyrimidin-4-yl)-6,7,8,9-tetrahydro-5H-benzo[7]annulen-5-yl)thiazole-5-carboxamide]: the pIC50 was above 8.00.

Take `Cn1cc(-c2cc3c(-c4ccc5c(c4)CCCCC5NC(=O)N4CCC(C(C)(C)C)C4)ncnc3[nH]2)cn1` (stereo not drawn) [Example I-162, 3-(tert-butyl)-N-(2-(6-(1-methyl-1H-pyrazol-4-yl)-7H-pyrrolo[2,3-d]pyrimidin-4-yl)-6,7,8,9-tetrahydro-5H-benzo[7]annulen-5-yl)pyrrolidine-1-carboxamide]: the pIC50 is above 8.00.

Regarding `CC(C)OC1CN(C(=O)NC2CCCCc3cc(-c4ncnc5[nH]c(-c6cnn(C)c6)cc45)ccc32)C1` (stereo not drawn) [Example I-163, 3-isopropoxy-N-(2-(6-(1-methyl-1H-pyrazol-4-yl)-7H-pyrrolo[2,3-d]pyrimidin-4-yl)-6,7,8,9-tetrahydro-5H-benzo[7]annulen-5-yl)azetidine-1-carboxamide], the pIC50 is above 8.00.

Values taken from US10280169B2, “Biaryl bruton's tyrosine kinase inhibitors” (BIOGEN MA INC., priority 2013, dated 2019).
